Measured values reported in PMC6812009, “Covalent Aurora A regulation by the metabolic integrator coenzyme A” (Redox Biology, 2019).
Values belong to the compound of their own block, whether it stands above or below them.

Key:
[1] = biological target: T1, Aurora A (inactive), unphosphorylated (PP1-treated) (Homo sapiens, UniProt O14965); experiment: Lanthascreen Eu Kinase FRET binding assay
T1 construct: For enzyme and DSF assays, full-length human Aurora A and Aurora B and 1–43 TPX2 were produced; made in house; host or cells: E. coli
T1 sequence (O14965 1-403): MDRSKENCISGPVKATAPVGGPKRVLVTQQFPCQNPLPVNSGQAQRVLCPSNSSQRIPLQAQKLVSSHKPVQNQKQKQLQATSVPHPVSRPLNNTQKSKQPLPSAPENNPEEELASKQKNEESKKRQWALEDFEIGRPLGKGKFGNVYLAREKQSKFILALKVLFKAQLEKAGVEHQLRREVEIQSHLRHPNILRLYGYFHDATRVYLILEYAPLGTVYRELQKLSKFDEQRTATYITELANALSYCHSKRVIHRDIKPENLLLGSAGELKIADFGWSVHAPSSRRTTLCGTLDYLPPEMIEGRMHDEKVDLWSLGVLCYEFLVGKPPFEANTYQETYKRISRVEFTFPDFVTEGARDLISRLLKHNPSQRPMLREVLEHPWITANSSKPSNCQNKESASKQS
Experimental: (§1) A Lanthascreen Eu Kinase FRET Binding Assay (Invitrogen) was employed to determine IC50 values for the interaction of Aurora A with CoA, dpCoA, ATP, and ADP. […] Recombinant Aurora A was incubated with Europium-conjugated anti-histidine tag antibody and an Alexa Fluor 647-labelled tracer, which binds to the ATP binding pocket of Aurora A. The close proximity of the anti-histidine (epitope-tag) antibody and the tracer results in a high degree of FRET (fluorescence resonance energy transfer) from the europium donor fluorophore to the Alexa Fluor 647 acceptor fluorophore. ATP-competitive inhibitors, such as CoA, displace the tracer from the active site, causing a loss of FRET signal. Assay set-up was performed as described by the manufacturer. Briefly, the time-resolved fluorescence resonance energy transfer assay (TR-FRET) was performed in black, low volume 384 well plates (Corning). Each well contained 5 nM kinase, 2 nM Eu-anti-His antibody and 10 nM kinase tracer 236 in kinase buffer A (50 mM Hepes pH 7.5, 10 mM MgCl2, 1 mM […], 0.01% (v/v) Brij-35), varying amounts of CoA, dpCoA, ATP, and ADP. The reaction mix was incubated for 1h at room temperature. The signal was measured at 665/620 nm emission ratio using BMG LABTECH plate reader (PHERAstar). All assays were performed using duplicates. The 11-point response curves were generated using GraphPad Prism software from the inhibition data generated.

[2] = biological target: T2, Aurora A (active), T288 phosphorylated (Homo sapiens, UniProt O14965); experiment: Lanthascreen Eu Kinase FRET binding assay; conditions: T288 phosphorylated Aurora A; read-out: Aurora A (active) IC50 (μM), binding assay
T2 construct: For enzyme and DSF assays, full-length human Aurora A and Aurora B and 1–43 TPX2 were produced; made in house; host or cells: E. coli
T2 sequence (O14965 1-403): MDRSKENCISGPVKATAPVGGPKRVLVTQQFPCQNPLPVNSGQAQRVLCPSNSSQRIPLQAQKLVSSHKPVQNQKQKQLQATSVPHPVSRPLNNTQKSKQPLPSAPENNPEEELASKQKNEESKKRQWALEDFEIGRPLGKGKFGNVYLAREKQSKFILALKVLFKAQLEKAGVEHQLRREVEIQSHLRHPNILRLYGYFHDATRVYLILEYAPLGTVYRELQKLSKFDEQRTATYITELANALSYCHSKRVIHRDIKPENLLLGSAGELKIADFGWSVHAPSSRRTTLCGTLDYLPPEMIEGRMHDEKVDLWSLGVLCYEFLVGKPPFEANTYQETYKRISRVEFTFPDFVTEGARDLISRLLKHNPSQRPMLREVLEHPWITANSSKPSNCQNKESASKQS
Experimental: as §1

[3] = biological target: T3, WT Aurora A (T288 phosphorylated, active) (Homo sapiens, UniProt O14965); experiment: Thermal shift assay (differential scanning fluorimetry); type: binding; conditions: 5 mM ATP, 5 mM CoA or 0.1 mM MLN8237; for CoA dependent on non-reducing conditions
T3 construct: Bacterially expressed full-length His-Aurora A was used to determine the IC50 value for CoA; made in house; host or cells: E. coli BL21 (DE3) pLysS
T3 sequence (O14965 1-403): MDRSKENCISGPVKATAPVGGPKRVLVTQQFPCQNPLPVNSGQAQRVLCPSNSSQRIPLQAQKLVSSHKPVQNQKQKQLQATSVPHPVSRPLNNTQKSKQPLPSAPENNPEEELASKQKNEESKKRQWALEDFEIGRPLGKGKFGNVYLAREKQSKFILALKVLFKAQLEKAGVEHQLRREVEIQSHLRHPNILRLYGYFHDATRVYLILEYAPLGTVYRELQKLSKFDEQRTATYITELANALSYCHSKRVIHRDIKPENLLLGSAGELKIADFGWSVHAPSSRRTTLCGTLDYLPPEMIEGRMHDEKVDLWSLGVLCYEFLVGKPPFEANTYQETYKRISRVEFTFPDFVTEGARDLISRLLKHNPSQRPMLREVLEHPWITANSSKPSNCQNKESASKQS
Experimental: (§2) Asp274Asn and Thr217Glu Aurora A mutants were generated by PCR-site directed mutagenesis, expressed and purified as described previously. Cys290Ala Aurora A was generated using standard procedures, and purified as described.
(§3) Thermal-shift assays were performed with a StepOnePlus Real-Time PCR machine (Life Technologies) using Sypro-Orange dye (Invitrogen) and thermal ramping (0.3 °C in step intervals between 25 and 94 °C). All proteins were diluted to a final concentration of 5 μM in 50 mM Tris/HCl, pH 7.4 and 100 mM NaCl in the presence or absence of the indicated concentrations of ligand (final DMSO concentration no higher than 4 % v/v). CoA, dephosphoCoA or kinase inhibitors diluted from 10 mM DMSO stocks were assayed as described previously. Normalized data were processed using the Boltzmann equation to generate sigmoidal denaturation curves, and average Tm/ΔTm values calculated as previously described using GraphPad Prism software.

[4] = biological target: T4, kinase-dead D274N (inactive) Aurora A (Homo sapiens, UniProt O14965, D274N); experiment: as above; type: binding; conditions: 5 mM ATP or 5 mM CoA; CoA DTT-dependent
T4 construct: For enzyme and DSF assays, full-length human Aurora A and Aurora B and 1–43 TPX2 were produced; 6His (N); made in house; host or cells: E. coli
Experimental: as §2, §3

T217E Aurora A = biological target: T5, T217E Aurora A (Homo sapiens, UniProt O14965, T217E); experiment: as above; type: binding; conditions: 5 mM ATP, 5 mM CoA or 0.1 mM MLN8237
T5 construct: For enzyme and DSF assays, full-length human Aurora A and Aurora B and 1–43 TPX2 were produced; made in house; host or cells: E. coli
T5 sequence (O14965 1-403 T217E): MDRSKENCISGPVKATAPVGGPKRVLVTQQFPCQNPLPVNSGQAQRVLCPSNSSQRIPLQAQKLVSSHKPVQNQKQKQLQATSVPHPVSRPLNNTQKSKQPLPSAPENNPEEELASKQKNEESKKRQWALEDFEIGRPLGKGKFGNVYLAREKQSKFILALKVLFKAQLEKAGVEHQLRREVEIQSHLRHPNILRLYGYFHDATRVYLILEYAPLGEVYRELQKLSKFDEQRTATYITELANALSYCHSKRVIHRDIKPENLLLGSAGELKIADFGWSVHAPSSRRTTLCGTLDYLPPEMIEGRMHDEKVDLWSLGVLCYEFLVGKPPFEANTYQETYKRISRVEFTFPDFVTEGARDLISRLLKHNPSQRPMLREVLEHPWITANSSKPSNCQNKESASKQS
Experimental: as §2, §3

C290A Aurora A = biological target: T6, C290A Aurora A (Homo sapiens, UniProt O14965, C290A); experiment: as above; type: binding; conditions: 5 mM ATP or 5 mM CoA
T6 construct: For enzyme and DSF assays, full-length human Aurora A and Aurora B and 1–43 TPX2 were produced; made in house; host or cells: E. coli BL21 (DE3) pLysS
Experimental: as §2, §3

Aurora A (active) = biological target: T7, Aurora A (active) (Homo sapiens, UniProt O14965); experiment: In vitro Aurora A kinase assay (γ33P-ATP incorporation into myelin basic protein); type: biochemical; conditions: 5 μM ATP, absence of DTT; read-out: IC50, Aurora A kinase activity
T7 construct: Bacterially expressed full-length His-Aurora A was used to determine the IC50 value for CoA; made in house; host or cells: E. coli BL21 (DE3) pLysS
T7 sequence (O14965 1-403): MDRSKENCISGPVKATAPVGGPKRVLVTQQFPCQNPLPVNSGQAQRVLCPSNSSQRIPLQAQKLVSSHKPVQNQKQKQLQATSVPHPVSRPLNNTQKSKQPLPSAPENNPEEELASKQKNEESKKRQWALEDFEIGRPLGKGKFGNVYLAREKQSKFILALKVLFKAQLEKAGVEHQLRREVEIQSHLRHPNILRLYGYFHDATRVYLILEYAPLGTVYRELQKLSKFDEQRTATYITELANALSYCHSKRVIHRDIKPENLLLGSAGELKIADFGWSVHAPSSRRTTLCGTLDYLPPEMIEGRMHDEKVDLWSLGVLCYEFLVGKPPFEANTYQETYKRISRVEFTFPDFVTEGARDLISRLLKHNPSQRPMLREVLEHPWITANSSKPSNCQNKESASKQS
Experimental: Profiling of 117 protein kinases with CoA, dpCoA and ADP was carried out at the International Centre for Protein Kinase Profiling at the University of Dundee. Each compound was tested in vitro, in duplicate, at 100 μM final concentration using recombinant kinases, model substrates and optimal concentrations of ATP. Bacterially expressed full-length His-Aurora A was used to determine the IC50 value for CoA (in the presence or absence of DTT), dpCoA, ADP and desulfo-CoA. The assay was performed in the presence of 5 μM competing ATP. To examine whether the inhibitory effect of CoA on Aurora A is modulated by TPX2, IC50 values for CoA were also generated in the presence and absence of 1 μg TPX2 (residues 1–43) fragment.
Aurora A kinase activity was assayed by measuring incorporation of γ^33P-ATP into myelin basic protein (Sigma). Purified recombinant protein (100 ng) was incubated at room temperature for 30 min in a total volume of 15 μl containing 50 mM HEPES pH 7.5, 10 mM MgCl2, 1 mM EGTA, 0.05% Brij-35, 0.5 mg/ml myelin basic protein, and 5 μM γ^33P-ATP (100–10,000 dpm/pmol). The reaction was stopped by spotting the reaction mixture onto squares of P81 phosphocellulose ion exchange paper (Whatmann), which were then immersed in 1.5% (v/v) phosphoric acid. After washing twice in 1% phosphoric acid followed by two washes in distilled water, the papers were air dried and radioactivity was counted by a scintillation counter and recorded by Quantasmart version 2.03.

[5] = system: FLAG-tagged Aurora A in HEK293/Pank1β cells; experiment: Aurora A Thr 288 phosphorylation and dimerization in cells treated with oxidising agents (immunoblot); type: cell-based, human; conditions: 30 min treatment; for Formation of Aurora A dimers in cells: non-reducing conditions; for Aurora A phosphorylation at Thr 288 in cells: samples separated in the presence of DTT
[6] = system: FLAG-tagged Aurora A in HEK293/Pank1β cells; experiment: Aurora A CoAlation in cells treated with oxidising agents (FLAG immunoprecipitation, anti-CoA immunoblot); type: cell-based, human; conditions: 30 min; 250 μM H2O2, 500 μM diamide, 50 μM menadione, 10 μM phenylarsine oxide

T4 sequence (O14965 whole entry D274N): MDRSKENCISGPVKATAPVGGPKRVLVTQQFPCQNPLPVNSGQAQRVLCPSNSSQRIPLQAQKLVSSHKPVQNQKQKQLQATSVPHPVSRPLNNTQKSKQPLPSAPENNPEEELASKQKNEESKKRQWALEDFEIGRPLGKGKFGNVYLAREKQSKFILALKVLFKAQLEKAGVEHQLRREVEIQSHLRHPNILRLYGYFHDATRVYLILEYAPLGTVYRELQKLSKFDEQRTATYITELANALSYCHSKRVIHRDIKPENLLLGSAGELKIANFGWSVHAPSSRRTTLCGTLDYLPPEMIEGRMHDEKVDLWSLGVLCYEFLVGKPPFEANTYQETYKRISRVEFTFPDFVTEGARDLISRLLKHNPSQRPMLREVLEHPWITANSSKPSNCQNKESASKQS
T6 sequence (O14965 whole entry C290A): as the sequence (O14965 whole entry D274N) above, with N274D, C290A counted along it

IC50 [1]: 3 µM
IC50 [2]: 0.2 µM
Change in thermal stability (ΔTm) [3]: marked change in thermal stability
Ligand interaction by thermal shift [4]: severely blunted
Ligand-induced thermal shift (T217E Aurora A): stabilization
Ligand binding / thermal stabilization (C290A Aurora A): still bound
Compound: Nc1ncnc2c1ncn2[C@@H]1O[C@H](COP(=O)(O)OP(=O)(O)OP(=O)(O)O)[C@@H](O)[C@H]1O [ATP]

IC50 (Aurora A (active)): 160 µM
Compound: CCNC(=O)CCNC(=O)[C@H](O)C(C)(C)COP(=O)(O)OP(=O)(O)OC[C@H]1O[C@@H](n2cnc3c(N)ncnc32)[C@H](O)[C@@H]1OP(=O)(O)O [desulfo-CoA]

Compound: OO [hydrogen peroxide]
Formation of Aurora A dimers in cells [5]: clearly observed
Aurora A phosphorylation at Thr 288 in cells [5]: promoted an increase

Compound: CN(C)C(=O)/N=N/C(=O)N(C)C [diamide]
Formation of Aurora A dimers in cells [5]: clearly observed
Aurora A phosphorylation at Thr 288 in cells [5]: promoted an increase
CoAlation of transiently expressed Aurora A in cells [6]: strongly induced

Compound: CC1=CC(=O)c2ccccc2C1=O [menadione]
Formation of Aurora A dimers in cells [5]: clearly observed
Aurora A phosphorylation at Thr 288 in cells [5]: promoted an increase
